Measurements from the Biogen ADME set (Fang et al. 2023).
Values after ≈ are worked out from the molar mass of the structure shown.

Details: for aqueous solubility: pH 6.8

| SMILES | MDR1-MDCK efflux ratio | intrinsic clearance, human liver microsomes [mL/min/kg] | intrinsic clearance, rat liver microsomes [mL/min/kg] | aqueous solubility [µg/mL] |
| --- | --- | --- | --- | --- |
| Cc1nc(NCc2cn(C)nc2-c2cccs2)n(C)n1 | 12.7 | ≤ 4.74 | 27.9 |  |
| Cc1nnc(-c2ccccc2NCc2ccsc2)o1 | 0.204 |  |  | 0.93 (≈ 3.43 µM) |
| COc1nc2c(cc1CNC(=O)N1CC[C@@H](O)C1)C(=O)N(C1CCCC1)C2 | 32 | ≤ 4.74 | ≤ 10.7 |  |
| O=C(Nc1nc2ccccc2[nH]1)C1CC1c1ccccc1 (stereo not drawn) |  |  |  | 1.1 (≈ 3.97 µM) |
| CCOc1cc(CNc2ccc(N3CCOCC3)c(C(=O)O)c2)cc(Cl)c1OC |  | 21.1 | 154 | 22.7 (≈ 54 µM) |
| O=C(CSC1CCCC1)N1CCC(Cn2cccn2)CC1 | 1.6 | 74.6 | 747 | 63.3 (≈ 206 µM) |
| N#Cc1ccc(CCC(=O)Nc2ccncc2)cc1 | 1.39 | ≤ 4.74 | 60.3 | 37.9 (≈ 151 µM) |
| Cc1cnccc1NC(=O)COc1ccccc1C#N |  | 12.2 | 302 |  |
| CCOc1ccccc1C(=O)N1CCC(c2nc(-c3ccc(OC)cc3)c(C(N)=O)[nH]2)CC1 | 47.7 | 104 | 237 | 46.4 (≈ 103 µM) |
| COc1cc(CN2C[C@H]3CCc4c(nc(C)[nH]c4=O)[C@H]3C2)cc(OC)c1OC | 47.5 | ≤ 4.74 | ≤ 10.7 |  |
| O=C(NCc1ccc(F)cc1)c1ccc(-n2ccnc2)nc1 | 1.04 | ≤ 4.74 | 30 | 70.8 (≈ 239 µM) |
| Cc1noc(C)c1N(C)CCn1cncn1 |  | ≤ 4.74 | 38.4 |  |
| Nc1ncnc2ccc(-c3ccnc(F)c3)nc12 | 0.726 | ≤ 4.74 | ≤ 10.7 |  |
| Cc1ccc(-c2ccnc(O)c2C#N)cc1 | 0.966 | ≤ 4.74 | 18.9 | 11.7 (≈ 55.7 µM) |
| O=C(Nc1ccc(N2CCOCC2)nc1)N1CCc2sccc2C1 | 1.91 | 8.76 | 109 | 25.8 (≈ 74.8 µM) |
| COc1ccc(-c2noc([C@@H]3CCCN3Cc3cccnc3)n2)cn1 | 0.759 | 98 | 1240 | 26.2 (≈ 77.7 µM) |
| Cn1ccc(NC(=O)[C@H]2CCCCN2C(=O)OC(C)(C)C)n1 | 2.54 | ≤ 4.74 | 154 | 42.4 (≈ 137 µM) |
| CCC[C@@H]1C[C@@H](C(=O)N[C@@H]([C@H]2O[C@H](SC)[C@H](O)[C@@H](O)[C@@H]2O)[C@@H](C)O)N(C)C1 | 2.51 | 13.3 | 88.3 |  |
| Cc1sc2ncnc(OCC(=O)NC3CCCCC3)c2c1C | 1.59 | 34.8 | 377 | 17.2 (≈ 54 µM) |
| COc1cc2cc(N)c(C3CCN(C(=O)C(C)(C)C)CC3)nc2cc1OC | 5.8 | 7.04 | 43.5 | 53 (≈ 143 µM) |
| Cc1nn(CCC#N)c(C)c1Oc1ccccc1O | 1.57 | ≤ 4.74 | 112 | 36.7 (≈ 143 µM) |

| SMILES | MDR1-MDCK efflux ratio | intrinsic clearance, human liver microsomes [mL/min/kg] | intrinsic clearance, rat liver microsomes [mL/min/kg] | aqueous solubility [µg/mL] |
| --- | --- | --- | --- | --- |
| CCCN1CCCN(c2ncccc2C#N)CC1 | 0.42 | 29.4 | 1680 | 27.9 (≈ 114 µM) |
| Cc1ccc2c(c1)c1nc3ccccc3nc1n2CC(N)=O | 0.833 |  |  | 0.16 (≈ 0.551 µM) |
| Cc1nonc1C(=O)NCCc1c[nH]c2cccc(C3(O)CCOCC3)c12 |  |  |  | 61.2 (≈ 165 µM) |
| CN(C)CCN(Cc1ccccc1)Cc1ccccc1O | 0.84 | 330 | 1380 | 41.9 (≈ 147 µM) |
| Cc1nccn1CCNC(=O)C(C)(C)C | 6.52 | ≤ 4.74 | ≤ 10.7 | 26.2 (≈ 125 µM) |
| O=C(Nc1ccc(Cl)cn1)C1(c2cccc(Cl)c2)CC1 | 0.574 |  |  | 0.33 (≈ 1.07 µM) |
| C=C(C)COc1ccc(C(=O)NCCc2cn3ccccc3n2)cc1 |  | 116 | 2190 | 27.4 (≈ 81.7 µM) |
| Cc1ccnc(Oc2cc(N)ccc2C)c1 | 0.542 | ≤ 4.74 | 230 | 35.3 (≈ 165 µM) |
| O=C(CN1CCc2ccccc21)N1CCNC1=O | 0.72 | ≤ 4.74 | 16.2 | 27.5 (≈ 112 µM) |
| Cc1sc2nc(CN3CCCC3)nc(N)c2c1C | 17.6 | ≤ 4.74 | 2760 | 44.6 (≈ 170 µM) |
| Cc1ncc(C)n2nc([C@@H]3C[C@H]3c3nc4c5cccnc5ccn4c3C)nc12 | 1.4 | 16.1 | 82.1 |  |
| CN1CCN(CCOc2ccccc2N)CC1 | 0.548 | 8.03 | 130 | 38.1 (≈ 162 µM) |
| C#CCNC(=O)CN1CCCN(C(=O)c2cccc(C)n2)CC1 | 32.5 | ≤ 4.74 | 15.7 | 36.5 (≈ 116 µM) |
| Cc1ccnc(-n2nccc2NC(=O)N2CCCN(C)CC2)c1 | 2.95 | 13.2 | 169 | 31.7 (≈ 101 µM) |
| COc1ccccc1-n1cc(CNC(=O)N(C)Cc2c(C)nn(C)c2C)cn1 | 54.7 | 75.5 | 511 |  |
| Cc1ncc(CCN2C(=O)NC3(CCCC3)C2=O)s1 | 91 | ≤ 4.74 | 63.6 |  |
| Cc1ccc(C2=NC3(CCN(Cc4ccc(F)cc4)CC3)NC2=O)cc1 | 0.541 | 11.2 | 669 | 12.7 (≈ 36.2 µM) |
| O=C(NCC1(c2ccc(F)cc2)CCOCC1)c1ccccn1 | 0.793 | 11.6 | 449 | 50 (≈ 159 µM) |
| O=S(=O)(Cc1csc(C2CCCC2)n1)C1CCCC1 | 0.538 | 92.7 | 2190 | 34.9 (≈ 116 µM) |
| Cn1cc(NC(=O)c2ccc(OCC3CCOCC3)nc2)cn1 | 2.95 | ≤ 4.74 | 41.2 | 50.1 (≈ 158 µM) |
